Test results reported in patent publication US20060160095A1, “Survivin” (EiRx Therapeutics Limited, priority 2002, published 2006).

Assays:
[1] = test system: Primary human neutrophils; assay: MTT survival assay of neutrophils cultured with GM-CSF, with or without gliotoxin; type: cell-based; settings: various amounts of GM-CSF, 18 h culture
Protocol: Primary human neutrophils are isolated and purified from peripheral blood of normal healthy individuals. Neutrophils are resuspended in serum containing culture medium together with various amounts of GM-CSF at a density of 2×10^6/ml, with 100 μl plated into a 96 well plate and cultured for 18 h at 37° C. After this time 10 μl of MTT (5 mg/ml) is added to the cultures and incubated for a further 4 h at 37° C. before solubilisation of the purple coloured formazan with acidic isopropanol. Optical densities are read at 570 nm using a plate reader.
Primary human neutrophils are isolated and purified from peripheral blood of normal healthy individuals. Neutrophils are resuspended in serum containing culture medium containing 5 U/ml of GM-CSF at a concentration of 2×10^6/ml. […] After the indicated time, 10 μl of MTT (5 mg/ml) are added to the cultures and incubated for a further 4 h at 37° C. before solubilisation of the purple coloured formazan with acidic isopropanol. Optical densities are read at 570 nm using a plate reader.

[2] = test system: Neutrophils; assay: Measurement of apoptosis by DNA fragmentation (propidium iodide flow cytometry); type: cell-based, human; settings: neutrophils cultured overnight in the presence of GM-CSF
Protocol: Neutrophils are isolated from the blood as described in Example 1 and resuspended at a concentration of 2×10^6/ml. Five hundred microlitres are pipetted into wells of a 24 well plate and incubated in the presence or absence of survival factors.
After this incubation, the neutrophils are carefully resuspended by gentle agitation and the total contents of the well are placed into an eppendorf and centrifuged @2800 rpm for 2 min @ RT in a minifuge. The cell pellet is carefully resuspended in 300 μl of ice cold hypotonic fluorochrome solution (50 μg/ml Propidium Iodide, 0.1% Sodium Citrate and 0.1% Triton X-100) and placed in a fridge for 24 h @ 4° C.
Prepared samples are analysed with a FacsCalibre flow cytometer (Becton Dickinson) using double discrimination to ensure single cell suspension with Log Forward and Side Scatter Parameter acquisition.

[3] = test system: Survivin mRNA; assay: Real-time PCR quantification of survivin mRNA in neutrophils; type: cell-based, human; settings: cytokine added in vitro; A549 standard = 100%
Protocol: (§1) Neutrophils are cultured at 1×10^6 per ml in complete culture medium. GM-CSF (50 ng/ml; kind gift of T. Hartung, University of Konstanz, Konstanz, Germany) or G-CSF (25 ng/ml; PeproTech, BioConcept, Allschwil, Switzerland) are added. The duration of GM-CSF or G-CSF stimulation is indicated in each experiment.
Neutrophils (1×10^7) are washed with PBS and the RNA is isolated according to the RNeasy protocol (Qiagen AG, Basel, Switzerland), which includes DNase digestion. RNA is reverse transcribed with the first strand cDNA synthesis kit (Amersham Pharmacia Biotech) by using random hexanucleotides according to the manufacturer's instructions. Real-time monitoring of PCR amplification of survivin cDNA is performed with a 1/100 dilution of neutrophil cDNA as previously described (Olie et al. (2000) Cancer Research 60, 2805-2809). Relative quantification of survivin expression is performed as described (Olie et al. (2000) Cancer Research 60, 2805-2809) utilizing rRNA as an internal standard.
(§2) The 20-mer first generation antisense oligonucleotide 4003 targeting the survivin mRNA has been described above. The second generation 2′-O-methoxy-ethoxy (2′-MOE) gapmer version of 4003 (as) and its 3-base mismatch sequence control (ms) are synthesized using an Applied Biosystems 394B automated DNA synthesizer as described (De Mesaeker et al. (1995) Acc. Chem. Res. 28, 366-374). Sequences are as follows: antisense survivin, cscscsasgsCsCsTsTsCsCsAsGsCsTscscststsg; mismatch survivin, cscstsasgsCsCsTsTsCsCsAsGsGsTscscstsasg. Small letters refer to 2′-O-(2-methoxy)-ethyl-modified nucleotides, capital letters to DNA, and “s” refers to phosphorothioate linkages. Cells isolated and cultured as described above are treated with survivin antisense oligonucleotides (as) or survivin mismatch control oligonucleotides (ms) at the indicated concentrations. In the experiments in which GM-CSF (50 ng/ml; kind gift of T. Hartung, University of Konstanz, Konstanz, Germany) or G-CSF (25 ng/ml; PeproTech, BioConcept, Allschwil, Switzerland) are added, the oligonucleotides are given 2 h before addition of cytokines.

[4] = test system: survivin; assay: Immunoblotting of survivin protein in neutrophils; type: cell-based, human; settings: cultured for 12 h in the presence of cytokine
Protocol: as §1
Neutrophils (5×10^6) are washed with PBS, lysed with RIPA-buffer (0.5% sodium deoxycholate, 1% Nonidet P-40, 0.1% SDS in PBS) supplemented with a protease inhibitor-cocktail (Sigma) with frequent vortexing on ice for 40 min, including two freeze/thaw cycles using a methanol/dry ice bath. After a 10-min centrifugation to remove insoluble particles, equal amounts of the cell lysates are loaded on NuPage-Gels (Invitrogen Corp., Groningen, Netherlands). Separated proteins are electrotransferred onto polyvinylidene difluoride (PVDF) membranes (Immobilion-P, Millipore, Bedford, Mass.). The filters are incubated overnight with a polyclonal anti-survivin antibody (1/1000; R&D Systems, Abingdon, UK) at 4° C. in TBS/0.1% Tween-20/3% non-fat dry milk. Purified full-length recombinant human survivin (2 μl) is provided by R&D Systems as positive control for anti-survivin immunoblotting. For loading controls, stripped filters are incubated with a monoclonal anti-β-actin antibody (1/10,000; Sigma). Filters are washed in TBS/0.1% Tween-20 for 30 min and incubated with the appropriate HRP-conjugated secondary antibody (Amersham Pharmacia Biotech, Dübendorf, Switzerland) in TBS/0.1% Tween-20/5% non-fat dry milk for 1 h. Filters are developed by an ECL-technique (ECL-Kit, Amersham Pharmacia Biotech) according to the manufacturer's instructions.
as §2

[5] = test system: caspase-3; assay: Caspase-3 immunoblotting in neutrophils; type: cell-based, human; settings: neutrophils cultured with GM-CSF or G-CSF for 10 h
Protocol: Immunoblotting is carried out as described above using supernatants of cell lysates. Caspase-3 is detected using a polyclonal anti-caspase-3 antibody (1/1000; Becton Dickinson Pharmingen, Heidelberg, Germany))
Neutrophils (2.5×10^6) are cultured in the presence or absence of GM-CSF (50 ng/ml), G-CSF (25 ng/ml), 2-MOE modified antisense or mismatch survivin oligonucleotides at the indicated concentrations for 10 h, washed with cold PBS and subsequently lysed in 50 μl cell lysis buffer (50 mM HEPES, pH 7.4/0.1% Chaps/5 mM DTT/0.1 mM EDTA) using a Teflon glass homogenizer (VWR International, Ismaning, Germany) on ice for 10 min. After a 10-min centrifugation step at 10,000×g at 4° C., an aliquot of the supernatant is saved for caspase-3 immunoblotting and caspase 3-like activity is measured in 10 μl supernatants as enzymatic-conversion of the colorimetric substrate Ac-DEVD-pNA at 405 nm according to the manufacturer's instructions (QuantiZyme caspase 3 cellular activity assay kit, Biomol, Plymouth Meeting, Pa., USA).

Substance: Granulocyte macrophage colony-stimulating factor [GM-CSF]
- neutrophil survival (MTT, optical density at 570 nm) [1]: direct correlation between survival and concentrations of GM-CSF
- apoptosis by DNA fragmentation (G0/G1 and sub-G1 peaks) [2]: few cells in the sub-G1 peak
- survivin mRNA in normal control neutrophils after cytokine addition [3]: increase in survivin mRNA
- Levels of survivin (immunoblot) in normal control neutrophils [4]: increased
- caspase-3 proform and 17-kDa fragment levels with cytokine [5]: maintain greater amounts of the caspase-3 proform
